No end group written: not given here.
What was measured:
BMP-12 = assay: Binding of BMP-12 to peptide-coupled affinity resins in 96 well filter plate
Method: The coupled resins, plus an unconjugated resin for use as a control, were suspended in 16% ethanol, 150 mM NaCl, and 20 mM Tris buffer at pH 7.5 at a 25% v/v ratio (e.g., 25% ethanol, 75% Tris buffer). A Tecan liquid-handling robot was employed to aliquot 200 µL of each slurry into one of eight rows of a 96 well polystyrene filter plate (0.45 µm hydrophilic filters, Whatman catalog number 770-1806). Spinning at 1200 g for 3 min removed the liquid phase, leaving 50 µL of wet resin on the filters. The resins were then equilibrated with the loading buffers listed in Table 6 (K is a coefficient characterizing the strength of protein binding to a particular resin in a particular buffer). […] The resins were loaded by transferring 150 µL from the load plate to the filter plate and then incubating 20 min on a shaking platform to facilitate binding. The filter plate was spun down and the filtrate collected in a 96 well UV plate. The protein concentration in the filtrate, or flow-through, was calculated as (A280-A320)/1.3. The filter plate was then washed with 150 µL of 100 mM acetic acid, followed by 150 µL of 4M guanidine-HCl and 50 mM sodium acetate at pH 4.0. The protein concentration was measured in the new filtrate as described above. […] However, for peptides 750 and 751, the binding was strong in 25 mM MES at pH 6 but weak in 50 mM acetic acid with 0.1 M NaCl at pH 3.0, which can allow an efficient binding-elution process without the need for chaotrops or organic reagents. Flow-through and acetic acid elution samples from column 4 of the plate (loaded with MES pH 6) were analyzed on a gel (Figure 14).

BMP-3 = assay: Purification of BMP-3 on immobilized finger 1 peptide column, comparison of ligands; type: binding; conditions: compared with the BMP-2 mutant peptide
From the text: ([…] […]) was used to purify BMP-3 as in Example 1. […] Less of the propeptide fragment eluted than in Example 6.

[1] = 50 mM acetic acid with 0.1 M NaCl at pH 3.0

binding of BMP 12 by coupled resin (BMP-12; loading buffers 1-5) | binding of BMP 12 by coupled resin (BMP-12; 25 mM MES at pH 6) | binding of BMP 12 by coupled resin (BMP-12; [1]) | Substance | further results
– | strong | weak | Ac-SDVGWNDWIVAPPGYHAFYCHGEK [Peptide 750] | –
– | strong | weak | Ac-SDVGWNDWIVAPPGYHAFYSHGEK [Peptide 751] | –

The remaining lines, values behind:

Substance | binding of BMP 12 by coupled resin (BMP-12; loading buffers 1-5) | binding of BMP 12 by coupled resin (BMP-12; 25 mM MES at pH 6) | binding of BMP 12 by coupled resin (BMP-12; [1]) | further results
Ac-ELGWDDWIIAPLDYEAYHSEGLK [Peptide 749] | high affinity | – | – | –
Ac-LYVDFSDVGWNDWIVAPPGYHAFYSHGEK [Peptide 747] | high affinity | – | – | –
Ac-RDLGWQDWIIAPEGYAAFYSDGEK [Peptide 748] | high affinity | – | – | –
KELGWDDWIIAPLDYEAYHCEGLC [BMP12 Fing1 WT] | – | – | – | effectiveness of immobilized ligand (BMP-3): less effective than the BMP-2 mutant

Source: patent EP2377876A1, “Use of proteins and peptides of the TGF-BETA superfamily for purification and therapeutic methods” (Wyeth LLC, priority 2006, dated 2011)
